Paper PMC10733463, “Berberine-microbiota interplay: orchestrating gut health through modulation of the gut microbiota and metabolic transformation into bioactive metabolites” (Frontiers in Pharmacology, 2023)

Test system: CD3+ T-cells
Assay: CD3 immunohistochemistry of duodenal tissue
Type: in vivo, Ross 308 broiler chickens
Settings: duodenum, 21 days
Source text: The study was undertaken following the guidelines of the ethics committee of the Faculty of Veterinary Medicine and Bioscience Engineering, Ghent University, in accordance with the EU Directive 2010/63/EU. […] They were allotted into 4 groups, with three replicate pens per group each housing 8 chickens. The animals were not vaccinated. Water and commercial starter feed (day 1-12, FARM 1 Mash, Country's Best, […], Belgium) or grower (day 13-21, FARM 2 mash, Country's Best, […], Belgium) were provided ad libitum. […] At day 21, 4 birds per pen were weighted then euthanized by sodium pentobarbital injection for sampling. […] Additionally, ileal and caecal content samples were collected and stored at -20°C for berberine and berberine-derived metabolite quantification. […] Slides for immunohistochemical staining for CD3^+ T-cells were automatically deparaffinized (Shandon […]-Gemini) before antigen retrieval with a pressure cooker in citrate buffer (10 mM, pH 6). Endogenous peroxidase activity was blocked by treating the slides with peroxidase blocking reagent ([…], Dako, Glostrup, Denmark) for 5 min. The presence of T-cells (CD3-positive cell abundance) in duodenal tissue from 21-day old chickens was evaluated using polyclonal primary antibodies against CD3 ([…], Dako, 1:100 dilution, 30 min at room temperature), followed by incubation with a secondary labelled polymer-HRP anti-rabbit antibody (Envision + System-HRP (DAB) ([…]), 30 min at room temperature). Slides were evaluated using the computer-based image analysis program, LAS V4.1. The CD3^+ area percentage in the duodenal tissue was quantified using four representative fields of view per intestinal section (10x objective).

For `COc1ccc2cc3[n+](cc2c1OC)CCc1cc2c(cc1-3)OCO2` [Berberine, Berberine chloride], the “CD3+ area percentage” value (0.1 g berberine/kg feed) was 8.39 ± 1.05, the “CD3+ area percentage” value (0.5 g berberine/kg feed) was 8.89 ± 2.09 and the “CD3+ area percentage” value (1 g berberine/kg feed) was 7.11 ± 2.18.
